Where two headings read alike, the source gives them in different places.
Legend:
rat AR = biological target: T1, rat AR (Rattus norvegicus, UniProt P15207); experiment: AR reporter assay (MMTV-luc) in COS7 cells expressing rat AR; format: cell-based
T1 construct: expressed in transfected cells; host or cells: COS7
T1 sequence (P15207 1-902): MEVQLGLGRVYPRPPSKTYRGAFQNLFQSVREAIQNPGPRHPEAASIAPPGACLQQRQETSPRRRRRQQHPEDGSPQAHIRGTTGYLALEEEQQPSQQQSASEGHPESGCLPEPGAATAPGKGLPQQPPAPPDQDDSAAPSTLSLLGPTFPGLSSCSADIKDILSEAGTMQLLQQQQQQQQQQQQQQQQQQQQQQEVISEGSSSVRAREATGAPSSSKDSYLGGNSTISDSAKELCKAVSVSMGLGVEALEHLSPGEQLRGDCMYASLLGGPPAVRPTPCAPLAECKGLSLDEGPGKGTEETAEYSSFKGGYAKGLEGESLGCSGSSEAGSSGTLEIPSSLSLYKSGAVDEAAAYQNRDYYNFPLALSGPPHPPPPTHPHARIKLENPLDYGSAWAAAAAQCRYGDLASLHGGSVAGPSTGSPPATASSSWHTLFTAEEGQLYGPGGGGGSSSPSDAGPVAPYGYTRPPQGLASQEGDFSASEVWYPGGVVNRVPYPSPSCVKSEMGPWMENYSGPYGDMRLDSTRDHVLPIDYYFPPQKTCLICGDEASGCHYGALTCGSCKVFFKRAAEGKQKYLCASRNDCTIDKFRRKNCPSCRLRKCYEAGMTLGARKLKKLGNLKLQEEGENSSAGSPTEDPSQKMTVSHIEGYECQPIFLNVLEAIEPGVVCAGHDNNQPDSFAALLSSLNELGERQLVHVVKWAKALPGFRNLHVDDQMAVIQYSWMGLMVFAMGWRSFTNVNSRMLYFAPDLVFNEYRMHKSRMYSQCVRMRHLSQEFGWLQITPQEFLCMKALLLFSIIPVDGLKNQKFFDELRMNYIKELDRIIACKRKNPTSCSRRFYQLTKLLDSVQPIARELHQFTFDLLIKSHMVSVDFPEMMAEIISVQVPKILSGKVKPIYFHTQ
Description: Two hours post‐transfection, the cells were plated in 96‐well plates at a density of 2 × 10^4 cells/well, and cultured at 37°C for 3 hours. […] Luciferase activity was measured using the Steady‐Glo Luciferase assay system (Promega) and an Envision Multimode Plate Reader (PerkinElmer).
(§1) In the reporter assays, EC50 was calculated using Graph Pad Prism version 6. The effects of SARM‐2f or TE on BW and LBM were analyzed by t test, with Bonferroni correction for repeated measurements.

[1] = design: method as in PMID 28454849; settings: monkeys, cited from earlier work
[2] = Liver function tests (AST, ALT) after 4-week treatment; format: in vivo, cynomolgus monkey; settings: after 4 wks; SARM‐2f 1, 3, 10 mg/kg daily p.o.; TE 2 mg/kg every 2 wks; vs vehicle
Description: (§2) The monkeys were divided into five groups by weight randomization (MiTOX system ver2.0, Mitsui E & S Systems Research Inc) on the last day of the habituation period. SARM‐2f was orally administered at daily doses of 1, 3, or 10 mg/kg for 4 weeks between 9:00 and 11:00 hours, using 0.5% w/v methylcellulose as the vehicle. TE was injected intramuscularly on Day 0 and Day 13; the dosing start was set at Day 0 at a dose of 2 mg/kg using sesame oil as the vehicle. The route of administration and dose of TE was selected according to the route and dose mentioned in the clinical indications. BW was measured every week before dosing (between 8:30 and 9:00 hours), and LBM was measured every 2 weeks after dosing and before feeding (between 11:30 and 14:30 hours) using an X‐ray bone density measuring device (Discovery, HOLOGIC USA). Blood collection for lipid profiles was conducted on the day after the completion of the four‐week multiple administration of SARM‐2f or TE. Plasma levels of total cholesterol (T‐chol), HDL‐c, low‐density lipoprotein cholesterol (LDL‐c), triglyceride (TG), alanine aminotransferase (ALT), and […] (AST) were measured by an automatic JCA‐BM8 analysis system (JEOL Ltd.). Plasma lipoprotein (a) (Lp (a)) levels were measured using a multiplate absorbance measuring system (Multiscan Ascent, Thermo Fisher Scientific KK).
as §1

[3] = design: method as in PMID 29344250; settings: rats; cited from earlier work
[4] = Pharmacokinetic study, oral single and 14-day dosing; format: in vivo, cynomolgus monkey
Description: Monkeys were orally treated with SARM‐2f (10 mg/kg) as a single dose or daily administration for 14 consecutive days; blood was collected from the femoral vein at 0.5, 1, 2, 4, 8, and 24 hours after the single dose and 14 doses (n = 2 each sex). The blood samples were centrifuged (4°C, 12 000 g, 1 minutes) to obtain plasma. Plasma concentrations of SARM‐2f were measured by liquid chromatography/tandem mass spectrometry.

[5] = Effects on body weight and lean body mass, 4-week administration; format: in vivo, cynomolgus monkey
Description: as §2, §1

[6] = 10 mg/kg p.o., 1st (single) dose, total N = 4
[7] = 10 mg/kg p.o., 1st dose, female N = 2
[8] = 10 mg/kg p.o., 1st dose, male N = 2
[9] = 10 mg/kg/day p.o., 14th dose, female N = 2
[10] = 10 mg/kg/day p.o., 14th dose, male N = 2
[11] = 10 mg/kg/day p.o., 14th dose, total N = 4

SMILES: CC[C@H]1[C@@H](O)CC(=O)N1c1ccc(C#N)c(C(F)(F)F)c1 [SARM‐2f, 4′‐[(2S,3S)‐2‐Ethyl‐3‐hydroxy‐5‐oxopyrrolidin‐1‐yl]‐2′‐(trifluoromethyl) benzonitrile]
- EC50 (rat AR; rat AR reporter assay (abstract), read-out: EC50): 2.5 nM
- maximal activation (rat AR; rat AR, at 1 μmol/L, 1 μmol/L DHT = 100%): 118%
- Vdss ([1]; intravenous administration at 0.1 mg/kg): 1409 mL/kg
- AUC 0‐24 h ([1]; single oral administration at 1 mg/kg): 557.8 ng·h/mL
- MRT (Mean Residence Time) [1]: 5.21 h
- Blood level of ALT [2]: not changed
- Blood level of AST [2]: not changed
- dose sufficient to increase BW [3]: 0.3 mg/kg
- AUC 0‐24 h [4, 6]: 8152 ± 945 ng·h/mL
- C max [4, 6]: 3011 ± 718 ng/mL
- T max [4, 6]: 1.0 ± 0.0 h
- AUC 0‐24 h [4, 7]: 8116 ng·h/mL
- C max [4, 7]: 3341 ng/mL
- T max [4, 7]: 1.0 h
- AUC 0‐24 h [4, 8]: 8188 ng·h/mL
- C max [4, 8]: 2681 ng/mL
- T max [4, 8]: 1.0 h
- AUC 0‐24 h [4, 9]: 6043 ng·h/mL
- C max [4, 9]: 2297 ng/mL
- T max [4, 9]: 1 h
- AUC 0‐24 h [4, 10]: 8620 ng·h/mL
- C max [4, 10]: 3176 ng/mL
- T max [4, 10]: 0.8 h
- AUC 0‐24 h [4, 11]: 7331 ± 1618 ng·h/mL
- C max [4, 11]: 2736 ± 525 ng/mL
- T max [4, 11]: 0.9 ± 0.3 h
- BW increase from pre‐dosing level ([5]; 1 mg/kg daily p.o., Day 13, male monkeys n = 3): 6.2%
- LBM increase from pre‐dosing level ([5]; 1 mg/kg daily p.o., Day 13, n = 3): 4.3%
- BW increase from pre‐dosing level ([5]; 1 mg/kg daily p.o., Day 27, male monkeys n = 3): 7.7%
- LBM increase from pre‐dosing level ([5]; 1 mg/kg daily p.o., Day 28, n = 3): 6.1%
- BW increase from pre‐dosing level ([5]; 3 mg/kg daily p.o., Day 13, male monkeys n = 3): 6.0%
- LBM increase from pre‐dosing level ([5]; 3 mg/kg daily p.o., Day 13, n = 3): 4.0%
- BW increase from pre‐dosing level ([5]; 3 mg/kg daily p.o., Day 27, male monkeys n = 3): 3.3%
- LBM increase from pre‐dosing level ([5]; 3 mg/kg daily p.o., Day 28, n = 3): 3.1%
- effective dose to increase BW by approximately 10% ([5]; monkeys, daily p.o., 4 weeks): 10 mg/kg
